Test results published in the supplement of paper PMC9938120.

Legend:
Assay in all cases: drug sensitivity score (DSS3, normalised partial AUC of % inhibition dose-response) (DSS (score)); higher = more sensitive (stronger inhibition of viability); extreme values may be limits of the assay
[1] = system: FMOC02_1 (patient-derived low-grade serous ovarian cancer cells); conditions: 72 h; library: FO5A; assay format: 2D, 384-well, CellTiter-Glo
Procedure, shortened: (§1)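 On 384-well flat clear-bottom plates carrying compounds at five concentrations across a 10,000-fold range, patient-derived ovarian cancer cells below passage 10 were incubated for 72 h at 37 °C with 5% CO2. CellTiter-Glo readout of viability was processed in Breeze. A higher drug sensitivity score, defined as the partial area under the percent-inhibition dose-response curve divided by the log of the upper asymptote, means greater sensitivity.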

[2] = system: FMOC02_2 (patient-derived low-grade serous ovarian cancer cells); conditions: 72 h; library: FO5A; assay format: 2D, 384-well, CellTiter-Glo
Procedure, shortened: as §1

[3] = system: FMOC02_3 (patient-derived low-grade serous ovarian cancer cells); conditions: 72 h; library: FO5A; assay format: 2D, 384-well, CellTiter-Glo
Procedure, shortened: as §1

[4] = system: FMOC03 (patient-derived mucinous ovarian cancer cells); conditions: 72 h; library: FO5A; assay format: 2D, 384-well, CellTiter-Glo
Procedure, shortened: as §1

[5] = system: FMOC04 (patient-derived high-grade serous ovarian cancer cells); conditions: 72 h; library: FO5A; assay format: 2D, 384-well, CellTiter-Glo
Procedure, shortened: as §1

[6] = system: FMOC06 (patient-derived mucinous ovarian cancer cells); conditions: 72 h; library: FO5A; assay format: 2D, 384-well, CellTiter-Glo
Procedure, shortened: as §1

[7] = system: FMOC09 (patient-derived high-grade serous ovarian cancer cells); conditions: 72 h; library: FO5A; assay format: 2D, 384-well, CellTiter-Glo
Procedure, shortened: as §1

[8] = system: FMOC11 (patient-derived high-grade serous ovarian cancer cells); conditions: 72 h; library: FO5A; assay format: 2D, 384-well, CellTiter-Glo
Procedure, shortened: as §1

[9] = system: FMOC14 (patient-derived high-grade serous ovarian cancer cells); conditions: 72 h; library: FO5A; assay format: 2D, 384-well, CellTiter-Glo
Procedure, shortened: as §1

[10] = system: FMOC17 (patient-derived low-grade serous ovarian cancer cells); conditions: 72 h; library: FO5A; assay format: 2D, 384-well, CellTiter-Glo
Procedure, shortened: as §1

[11] = system: FMOC22 (patient-derived mucinous ovarian cancer cells); conditions: 72 h; library: FO5A; assay format: 2D, 384-well, CellTiter-Glo
Procedure, shortened: as §1

[12] = system: FMOC24 (patient-derived high-grade serous ovarian cancer cells); conditions: 72 h; library: FO5A; assay format: 2D, 384-well, CellTiter-Glo
Procedure, shortened: as §1

[13] = system: FMOC25_1 (patient-derived low-grade serous ovarian cancer cells); conditions: 72 h; library: FO4B; assay format: 2D, 384-well, CellTiter-Glo
Procedure, shortened: as §1

[14] = system: FMOC25_2 (patient-derived low-grade serous ovarian cancer cells); conditions: 72 h; library: FO5A; assay format: 2D, 384-well, CellTiter-Glo
Procedure, shortened: as §1

[15] = system: FMOC27 (patient-derived low-grade serous ovarian cancer cells); conditions: 72 h; library: FO5A; assay format: 2D, 384-well, CellTiter-Glo
Procedure, shortened: as §1

[16] = system: FMOC28 (patient-derived low-grade serous ovarian cancer cells); conditions: 72 h; library: FO5A; assay format: 2D, 384-well, CellTiter-Glo
Procedure, shortened: as §1

Structure (SMILES)	drug sensitivity score [1]	drug sensitivity score [2]	drug sensitivity score [3]	drug sensitivity score [4]	drug sensitivity score [5]	drug sensitivity score [6]	drug sensitivity score [7]	drug sensitivity score [8]	drug sensitivity score [9]	drug sensitivity score [10]	drug sensitivity score [11]	drug sensitivity score [12]	drug sensitivity score [13]	drug sensitivity score [14]	drug sensitivity score [15]	drug sensitivity score [16]
Cc1ccc(C(=O)N(CCCN)[C@@H](c2oc3cc(Cl)ccc3c(=O)c2Cc2ccccc2)C(C)C)cc1	3.3	2.4	2.5	1.8	2.4	1.1	2.4	1.9	0	1.3	1.3	0	1.9	5.6	0	5
Cc1cccc(CC(=O)N2CCc3c2ccc(-c2cn(C)c4ncnc(N)c24)c3F)n1	0	0	0	0	0	0	0	0	0	0	0.2	0	0.2	1.6	0	0
Cc1ncc(Cl)cc1NCc1ccc(C(=O)N[C@@H](CC2CCCC2)C(=O)NC2CC2)s1	0	0	7.1	0	0	0.2	0	0	0	0	0.1	2.05	0	0	1.5	0
N#Cc1ccc(COC[C@H]2O[C@@H](n3c(NCc4ccc(Cl)c(Cl)c4)nc4c(N)ncnc43)[C@H](O)[C@@H]2O)cc1	7.6	2.6	6.6	6	0.95	5.5	2	3.2	2.5	5.6	4.2	2.1	6.6	0	1.6	0
NCC(=O)Nc1ccc(-n2nc(C(F)(F)F)cc2-c2ccc3c(ccc4ccccc43)c2)cc1	6.9	4.3	1.8	0.4	1.2	0	0	0	0	1.9	0.8	3.05	7.9	5.2	0	4.5
NC[C@@](O)(c1ccc(Cl)cc1)c1ccc(-c2cn[nH]c2)cc1	4.1	0.4	0	0.3	0	1.5	2.6	2.8	0	0	1.1	4.55	2.8	0.4	0	2.8
Nc1nccc(-c2c(-c3ccc(F)cc3)ncn2C2CCCCC2)n1	4.9	3.4	1.1	1.6	0.05	0.1	0	2.5	0.2	1.6	0.4	0.85	1.7	1.8	1	6.9
Nc1ncnc2c1c(COc1cccc(Cl)c1)nn2C1CCOCC1	0.5	1	0.4	0	0	0	0	0	0.3	0	0	0	0.6	1.9	0.8	0
O=C(NC[C@H](O)CN1CCc2ccccc2C1)c1cc(NC2COC2)ncn1	0	0	1.3	0	0	0	0.3	0	0	0	1.8	0.5	1	0.2	1.1	0
O=C(O)c1ccc(-c2c[nH]c3ncc(-c4ccccc4)cc23)cc1C1CCCC1	0	0	0	0.5	0	0	0	0	0	0	0.8	0.65	0	0.4	0	2.9
O=C(O)c1ccc(CN2CCC(CN[C@@H]3C[C@H]3c3ccccc3)CC2)cc1	0.4	0	1.6	0	0.4	0	0	0	0	0	0	0.9	0	0	0	0
O=c1[nH]c(C2CCCN2)nc2c1oc1ccc(Cl)cc12 (stereo not drawn)	2.7	0	3.9	0.3	0	0	0	0.4	0	0	0	0	2	0	0	4.4
Cn1cc(C[C@@H](N)C(=O)O)c2ccccc21 [1-methyl-D-tryptophan]	0	0	0	0	0	0	0.2	0	0	0	0	0	0	0	0	0.5
